Data: patent publication US10973912B2, “Treatment for myopathy” (Children's Medical Center Corporation, priority 2015, dated 2021)
Entries after “also recorded” stand apart in the source; their conditions may differ.

Columns and labels:
[1] = tested on: ryr1b skeletal muscles; experiment: Tetanic force per cross-sectional area in larvae at 5 dpf; assay type: in vivo, zebrafish (Danio rerio); conditions: WT, n=5, 9 biphasic 200 μs pulses at 300 Hz
Experimental: (§1) Tetanic forces were measured following stimulation with 9 biphasic, 200 μs square-wave pulses at 300 Hz (WT-DMSO: 45.6±4.2 kPa, n=5; WT-NIF: 52.8±4.1 kPa, n=5; ryr1b-DMSO: 11.4±1.3 kPa, n=7; ryr1b-NIF: 25.4±4.0 kPa, n=7). Significance was determined by a one-way ANOVA (F=29.61, P<0.0001), followed by pairwise Tukey's HSD post hoc tests. […] Non-linear regression data of curves were not statistically different, as determined by an extra sum-of-squares F test (P=1.0).
Ryr1b mutants display weaker muscle contractions than wild-type clutchmates as early as 2 dpf^30. To investigate whether […] affects contractile strength in zebrafish, ryr1b mutants and unaffected controls were treated with the compound for several days. At 5 dpf, electrophysiological studies were performed with the help of Dr. Jeffrey Widrick.

[2] = tested on: wild-type mouse myotubes; experiment: Calcium imaging, caffeine dose response of depolarization-induced calcium release; assay type: cell-based, mouse (C57BL/6N); conditions: wild-type background, cultured 5 days with compound
Experimental: as §1
Primary myoblasts from C57BL/6N mice were isolated and differentiated as described previously^39. Calcium imaging was performed 5 days after differentiation in myotubes loaded with 3 μM Fluo-4-AM (Life Technologies). Myotubes were imaged in imaging buffer (125 mM NaCl, 5 mM KCl, 2 mM CaCl2, 1.2 mM MgSO4, 6 mM glucose, 2 mM Ca^2+, 25 mM Hepes/Tris, pH 7.4) at 490-500 nm with a Stanford Photonics 10 bit digital intensified CCD using a DG4 multi-wavelength light source. Fluorescent emission at 510 was acquired and analyzed using QED Imaging software (QED Software, Pittsburgh, Pa., USA) from regions of interest within each myotube at 30 frames per second. Sensitivity to K^+-depolarization and caffeine-activation were determined by a 5 second perfusion with 5-6 volumes of KCl (10 mM to 60 mM) or caffeine (3 mM to 40 mM). […]

[3] = tested on: ryr1b zebrafish; experiment: Activity monitoring (Noldus Daniovision), spontaneous swimming at 20 dpf; assay type: in vivo, zebrafish (Danio rerio); conditions: long-term treatment
Experimental: In FIG. 10A, body angles of ryr1b mutants after 20 days of NIF treatment (10.0 μg/mL) are corrected and statistically indistinguishable from wild-type controls. […] Angles were measured by first drawing/extending straight lines between the eyes of the larva as well as along the midline of the trunk (shown by dotted red lines). The angle of intersection was determined using Adobe Photoshop CS3 software (WT-DMSO: 179.1±0.9°, n=6; WT-NIF: 176.8±1.1°, n=6; ryr1b-DMSO: 142.6±6.2°, n=11; ryr1b-NIF: 174.4±2.0°, n=4). Significance was determined by a one-way ANOVA (F=13.60, P<0.0001), followed by pairwise Tukey's HSD post hoc tests. […] Significance was determined by a one-way ANOVA (F=10.03, P=0.0009), followed by pairwise Tukey's HSD post hoc tests. […]
Zebrafish behavioral parameters were defined using the Noldus Daniovision activity monitoring system. […] Swimming behaviors were recorded over the entire 2.0-hour period with an infrared light source. […] Behavioral parameters recorded include frequency, mean velocity, total distance, and cumulative duration of movement, and reflect the average of all larvae in an experimental group.
Next, to determine if long-term NIF treatment affects ryr1b motor functions, spontaneous swimming behaviors of 20 dpf larvae were quantified using the Noldus Daniovision. […]

[4] = tested on: ryr1b mutants; experiment: Kaplan-Meier survival of ryr1b mutants; assay type: in vivo, zebrafish (Danio rerio); conditions: 10 μg/mL from 1 to 50 dpf
Experimental: Kaplan-Meier survival curves of ryr1b mutants treated with either DMSO or NIF (10 μg/mL) from 1 to 50 dpf. Mutants were sorted from unaffected controls at 5 dpf using a touch-evoked escape behavior assay. Untreated fish all died by 35 days of life. Median survival of DMSO-versus NIF-treated mutants was 15.0 and 13.0 days, respectively.
In addition to their muscular defects, ryr1b mutants die prematurely^30. To examine whether long-term treatment with NIF positively impacts the life span of ryr1b mutants, affected larvae (selected at 5 dpf by touch-evoked escape behavior assay) were treated with compound from 1 to 50 dpf.

[5] = tested on: phosphorylated Stat3; experiment: Western blot of phosphorylated Stat3 at 5 dpf; assay type: in vivo, zebrafish (Danio rerio); conditions: 10 μg/mL, normalized to β-Actin
Experimental: In two independent experiments, two pools of 20 larvae from heterozygous ryr1b matings were treated with DMSO or with one of three different concentrations of NIF (1.0-100.0 μg/mL) at 1 dpf and evaluated in terms of touch-evoked escape behaviors at 5 dpf (n=40). Following phenotypic scoring, all living embryos were genotyped using three-primer genomic PCR. Swimming scores for larvae genotype-confirmed as ryr1b homozygous mutants are shown as a percentage of the total number of living larvae in each dose category: 1=poor swimming; 2 or 3=moderate or wild-type swimming. NIF improved mobility of ryr1b mutants at a dose of 10 μg/mL. […] Phospho-Stat3 band intensities were normalized to β-Actin control bands and quantified in Image J (NIH).
Western blotting was performed on groups of 50-100 wild-type or mutant zebrafish larvae at 5 dpf. […] Phospho-Stat3 band intensities were normalized to control bands and quantified in Image J (NIH).
To determine whether zebrafish stat3 is differentially expressed in the wild-type and Ryr1-deficient background, quantitative real-time RT-PCR was performed using fluorescently tagged Taqman probes.

## O=C(N/N=C/c1ccc([N+](=O)[O-])o1)c1ccc(O)cc1 [Nifuroxazide]
[1]
  tetanic force per cross-sectional area, wild-type larvae: 52.8±4.1 kPa
[2]
  calcium release in response to caffeine: only very modest increases in calcium release
[3]
  distance travelled during 2.0-hour period: large and robust increase on the distance travelled by ryr1b zebrafish
[4]; listed as NIF
  survival of ryr1b mutants: did not significantly differ; also recorded: two affected fish treated with NIF survived until termination of the study
[4]; ryr1b mutants, DMSO 15.0 days, log-rank P=0.5
  median survival: 13.0 days
[5]
  levels of phosphorylated Stat3 protein: larger decrease in ryr1b mutants than in unaffected controls
